Values after ≈ are worked out from the molar mass of the structure shown. Where two headings read alike, the source gives them in different places.
Key:
Experiment in all cases: Minimum inhibitory concentration (MIC) by agar dilution
Assay type in all cases: cell-based
Enterobacter cloacae = test system: Enterobacter cloacae
Protocol: (§1) Briefly, MIC values are determined in unsupplemented Mueller Hinton Agar (MHA). The compounds tested are diluted serially into molten MHA at 47° C. The agar is poured into petri dishes and allowed to harden. The various bacteria used for testing are grown overnight on MHA at 35° C. and transferred to Trypticase soy broth (TSB) until a turbidity of 0.5 McFarland standard is obtained. The bacteria are diluted one to 20 in TSB and inoculated on the plates (1 μl using a Steers replicator).
as §1, with “Compounds of this invention can also be tested for in vitro antimicrobial activity using standard testing procedures such as the determination of minimum inhibitory concentration (MIC) by agar dilution as described in "Methods for Dilution Antimicrobial Susceptibility Tests for Bacteria That Grow Aerobically" (MFT) published Jan. […] Briefly,” for “Briefly,”, “(1μl” for “(1 μl”

[1] = test system: Acinetobacter calcoaceticus; settings: Acinetobacter calcoaceticus
Protocol: as §1, with “The antibacterial activity of the compounds of Formula IC was determined by using standard testing procedures such as the determination of minimum inhibitory concentration (MIC) by agar dilution as described in "Methods for Dilution Antimicrobial Susceptibility Tests for Bacteria That Grow Aerobically" (MFT) published January 1983 by the National Committee for Clinical Laboratory Standards, 771 East Lancaster Avenue, Villanova, Pa. 19084, USA. Briefly,” for “Briefly,”
(§2) Compounds of this invention can also be tested for in vitro antimicrobial activity using standard testing procedures such as the determination of minimum inhibitory concentration (MIC) by agar dilution as described in "Methods for Dilution Antimicrobial Susceptibility Tests for Bacteria That Grow Aerobically" (MFT) published Jan. 1983 by the National Committee for Clinical Laboratory Standards, 771 East Lancaster Avenue, Villanova, Penna. 19084, USA. Briefly, MIC values are determined in unsupplemented Mueller Hinton Agar (MHA). The compounds tested are diluted serially into molten MHA at 47° C. The agar is poured into petri dishes and allowed to harden. The various bacteria used for testing are grown overnight on MHA at 35° C. and transferred to Trypticase soy broth (TSB) until a turbidity of 0.5 McFarland standard is obtained. The bacteria are diluted one to 20 in TSB and inoculated on the plates (1μl using a Steers replicator). […] The MIC test results of selected of Formula B compounds of this invention are found in Tables B2-B9.

Citerobacter freundii = test system: Citerobacter freundii
Protocol: (§3) The antibacterial activity of the compounds of Formula IC was determined by using standard testing procedures such as the determination of minimum inhibitory concentration (MIC) by agar dilution as described in "Methods for Dilution Antimicrobial Susceptibility Tests for Bacteria That Grow Aerobically" (MFT) published January 1983 by the National Committee for Clinical Laboratory Standards, 771 East Lancaster Avenue, Villanova, Pa. 19084, USA. Briefly, MIC values are determined in unsupplemented Mueller Hinton Agar (MHA). The compounds tested are diluted serially into molten MHA at 47° C. The agar is poured into petri dishes and allowed to harden. The various bacteria used for testing are grown overnight on MHA at 35° C. and transferred to Trypticase soy broth (TSB) until a turbidity of 0.5 McFarland standard is obtained. The bacteria are diluted one to 20 in TSB and inoculated on the plates (1 μl using a Steers replicator).
as §2

Escherichia coli = settings: Escherichia coli
Protocol: as §3, §2

Klebsiella pneumoniae = test system: Klebsiella pneumoniae
Protocol: as §3, §2

Proteus penneri = settings: Proteus penneri
Protocol: as §3, §2

Pseudomonas aeruginosa = settings: Pseudomonas aeruginosa
Protocol: as §3, §2

Staphylococcus aureus = settings: Staphylococcus aureus
Protocol: as §3, §2

[2] = test system: Staphylococcus epidermidis; settings: 20 h
Protocol: as §3, §2

Streptococcus faecalis = settings: Enterococcus faecalis
Protocol: as §3, §2

Streptococcus pneumoniae = settings: Streptococcus pneumoniae
Protocol: as §3, §2

Streptococcus pyogenes = settings: Streptococcus pyogenes
Protocol: as §3, §2

Serratia marcescens = settings: 20 h, read-out: MINIMUM INHIBITORY CONCENTRATION
Protocol: as §3, §2

[3] = 20 h, read-out: MINIMUM INHIBITORY CONCENTRATION
[4] = 20 h, read-out: MINIMUM INHIBITORY CONCENTRATION, Cult No. 12170, MHA
[5] = 20 h, read-out: MINIMUM INHIBITORY CONCENTRATION, Cult No. 6674, MHA
[6] = 20 h, read-out: MINIMUM INHIBITORY CONCENTRATION, Cult No. 9451, MHA
[7] = 20 h, read-out: MINIMUM INHIBITORY CONCENTRATION, Cult No. 9855, MHA
[8] = 20 h, read-out: MINIMUM INHIBITORY CONCENTRATION, Cult No. 9952, MHA
[9] = 20 h, read-out: MINIMUM INHIBITORY CONCENTRATION, Cult No. 9679, MHA
[10] = 20 h, read-out: MINIMUM INHIBITORY CONCENTRATION, Cult No. 6676, MHA
[11] = 20 h, read-out: MINIMUM INHIBITORY CONCENTRATION, Cult No. 9191, MHA
[12] = 20 h, read-out: MINIMUM INHIBITORY CONCENTRATION, Cult No. 12120, MHA
[13] = 20 h, read-out: MINIMUM INHIBITORY CONCENTRATION, Cult No. 6685, MHA
[14] = 20 h, read-out: MINIMUM INHIBITORY CONCENTRATION, Cult No. 9213, MHA
[15] = 20 h, read-out: MINIMUM INHIBITORY CONCENTRATION, Cult No. 9218, MHA
[16] = 20 h, read-out: MINIMUM INHIBITORY CONCENTRATION, Cult No. 9271, MHA
[17] = read-out: MINIMUM INHIBITORY CONCENTRATION
[18] = 20 h, read-out: MINIMUM INHIBITORY CONCENTRATION, Cult No. 41, MHA
[19] = 20 h, read-out: MINIMUM INHIBITORY CONCENTRATION, Cult No. 152, MHA

Compound	MIC (Enterobacter cloacae; [3]) [mg/L]	MIC [1, 4] [mg/L]	MIC (Citerobacter freundii; [3]) [mg/L]	MIC (Escherichia coli; [5]) [mg/L]	MIC (Escherichia coli; [6]) [mg/L]	MIC (Escherichia coli; [7]) [mg/L]	MIC (Escherichia coli; [8]) [mg/L]	MIC (Klebsiella pneumoniae; [3]) [mg/L]	MIC (Proteus penneri; [9]) [mg/L]	MIC (Pseudomonas aeruginosa; [10]) [mg/L]	MIC (Pseudomonas aeruginosa; [11]) [mg/L]	MIC (Pseudomonas aeruginosa; [12]) [mg/L]	MIC (Serratia marcescens) [mg/L]	MIC (Staphylococcus aureus; [13]) [mg/L]	MIC (Staphylococcus aureus; [14]) [mg/L]	MIC (Staphylococcus aureus; [15]) [mg/L]	MIC (Staphylococcus aureus; [16]) [mg/L]	MIC [2, 17] [mg/L]	MIC (Streptococcus faecalis; [3]) [mg/L]	MIC (Streptococcus pneumoniae; [18]) [mg/L]	further results
C#CC(C)(C)n1cc(C(=O)O)c(=O)c2cc(F)c(N3CCC(N)C3)nc21.CS(=O)(=O)O (racemic) [E, (+,-)-7-(3-amino-1-pyrrolidinyl)-1,4-dihydro-1-(1,1-dimethyl-2-propynyl)-6-fluoro-4-oxo-1,8-naphthyridine-3-carboxylic acid methanesulfonate]	–	–	–	–	–	–	–	–	–	–	–	–	–	–	–	–	–	–	–	–	MIC (Enterobacter cloacae; UC9382, 20 h, E. cloacae UC 9382, Table CI, read-out: Minimum Inhibitory Concentration): 0.06 mg/L; MIC ([1]; UC12170, 20 h, A. calcoaceticus UC 12170, Table CI, read-out: Minimum Inhibitory Concentration): 0.25 mg/L; MIC (Citerobacter freundii; Citrobacter freundii, UC3507, 20 h, C. freundii UC 3507, Table CI, read-out: Minimum Inhibitory Concentration): 0.06 mg/L; MIC (Escherichia coli; UC6674, 20 h, E. coli UC 6674, Table CI, read-out: Minimum Inhibitory Concentration): 0.06 mg/L; MIC (Escherichia coli; UC9451, 20 h, E. coli UC 9451, Table CI, read-out: Minimum Inhibitory Concentration): 0.06 mg/L; MIC (Escherichia coli; UC9855, 20 h, E. coli UC 9855, Table CI, read-out: Minimum Inhibitory Concentration): 0.06 mg/L; MIC (Escherichia coli; UC9952, 20 h, E. coli UC 9952, Table CI, read-out: Minimum Inhibitory Concentration): 0.06 mg/L; MIC (Klebsiella pneumoniae; UC12081, 20 h, K. pneumoniae UC 12081, Table CI, read-out: Minimum Inhibitory Concentration): 0.125 mg/L; MIC (Proteus penneri; UC9679, 20 h, P. penneri UC 9679, Table CI, read-out: Minimum Inhibitory Concentration): 0.5 mg/L; MIC (Pseudomonas aeruginosa; UC6676, 20 h, Ps. aeruginosa UC 6676, Table CI, read-out: Minimum Inhibitory Concentration): 2 mg/L; MIC (Pseudomonas aeruginosa; UC9191, 20 h, Ps. aeruginosa UC 9191, Table CI, read-out: Minimum Inhibitory Concentration): 1 mg/L; MIC (Pseudomonas aeruginosa; UC12120, 20 h, Ps. aeruginosa UC 12120, Table CI, read-out: Minimum Inhibitory Concentration): 0.5 mg/L; MIC (Staphylococcus aureus; UC6685, 20 h, S. aureus UC 6685, Table CI, read-out: Minimum Inhibitory Concentration): 0.125 mg/L; MIC (Staphylococcus aureus; UC9213, 20 h, S. aureus UC 9213, Table CI, read-out: Minimum Inhibitory Concentration): 0.25 mg/L; MIC (Staphylococcus aureus; UC9218, 20 h, S. aureus UC 9218, Table CI, read-out: Minimum Inhibitory Concentration): 0.25 mg/L; MIC (Staphylococcus aureus; UC9271, 20 h, S. aureus UC 9271, Table CI, read-out: Minimum Inhibitory Concentration): 0.25 mg/L; MIC ([2]; S. epidermidis 30031, Table CI, read-out: Minimum Inhibitory Concentration): 0.125 mg/L; MIC (Streptococcus faecalis; UC9217, 20 h, S. faecalis UC 9217, Table CI, read-out: Minimum Inhibitory Concentration): 1 mg/L; MIC (Streptococcus pneumoniae; UC41, 20 h, S. pneumoniae UC 41, Table CI, read-out: Minimum Inhibitory Concentration): 0.5 mg/L; MIC (Streptococcus pyogenes; UC152, 20 h, S. pyogenes UC 152, Table CI, read-out: Minimum Inhibitory Concentration): 0.25 mg/L
NC1CCN(c2nc3c(cc2F)c(=O)c(C(=O)O)cn3C23CC(C2)C3)C1 (racemic) [No. 36, 7-(3-amino-1-pyrrolidinyl)-1-(bicyclo[1.1.1]pent-1-yl)-1,4-dihydro-6-fluoro-4-oxo-1,8-naphthyridine-3-carboxylic acid]	0.03 (≈ 0.0837 µM)	0.125 (≈ 0.349 µM)	0.03 (≈ 0.0837 µM)	0.03 (≈ 0.0837 µM)	0.03 (≈ 0.0837 µM)	0.06 (≈ 0.167 µM)	0.03 (≈ 0.0837 µM)	0.06 (≈ 0.167 µM)	0.25 (≈ 0.698 µM)	1 (≈ 2.79 µM)	0.5 (≈ 1.4 µM)	0.25 (≈ 0.698 µM)	0.125 (≈ 0.349 µM)	0.125 (≈ 0.349 µM)	0.125 (≈ 0.349 µM)	0.125 (≈ 0.349 µM)	0.125 (≈ 0.349 µM)	0.06 (≈ 0.167 µM)	0.5 (≈ 1.4 µM)	0.5 (≈ 1.4 µM)	MIC (Streptococcus pyogenes; [19]): 0.25 mg/L (≈ 0.698 µM)
NC1CCN(c2c(F)cc3c(=O)c(C(=O)O)cn(C45CC(C4)C5)c3c2F)C1 (racemic) [No. 84, 7-(3-amino-1-pyrrolidinyl)-1-(bicyclo[1.1.1]pent-1-yl)-1,4-dihydro-6,8-difluoro-4-oxo-3-quinolinecarboxylic acid]	0.06 (≈ 0.16 µM)	0.125 (≈ 0.333 µM)	0.36 (≈ 0.959 µM)	0.03 (≈ 0.0799 µM)	0.06 (≈ 0.16 µM)	0.06 (≈ 0.16 µM)	0.03 (≈ 0.0799 µM)	0.06 (≈ 0.16 µM)	0.25 (≈ 0.666 µM)	1 (≈ 2.66 µM)	0.5 (≈ 1.33 µM)	0.5 (≈ 1.33 µM)	0.125 (≈ 0.333 µM)	0.06 (≈ 0.16 µM)	0.125 (≈ 0.333 µM)	0.125 (≈ 0.333 µM)	0.125 (≈ 0.333 µM)	0.125 (≈ 0.333 µM)	0.5 (≈ 1.33 µM)	0.5 (≈ 1.33 µM)	MIC (Streptococcus pyogenes; [19]): 0.25 mg/L (≈ 0.666 µM)

Source: patent US5262417A, “Antibacterial quinolone compounds” (The Upjohn Company, priority 1991, dated 1993)
